In the experiment the target is ENPP-1 ECD (Homo sapiens (Human), UniProt P22413). Put plainly: Assay 2: inhibition of ENPP1 hydrolysis of 2′,3′-cGAMP (AMP-Glo, […] enzyme).
Setting [1] is: Assay 2 (KI), inhibition of ENPP1 hydrolysis of 2′,3′-cGAMP, no unit in Table 18 (Table 17 legend for this assay uses nM).
Setting [2] is: read-out: Assay 2 (KI), ENPP1 hydrolysis of 2′,3′-cGAMP, AMP-Glo, […] ENPP-1, 24 μM cGAMP.
Where [3] appears, read: read-out: Assay 2 (KI), inhibition of ENPP1 hydrolysis of 2′,3′-cGAMP, no unit in Table 18 (Table 17 legend for this assay uses nM).
The mark [4] stands for this setting: Assay 2 (KI), ENPP1 hydrolysis of 2′,3′-cGAMP, AMP-Glo, […] ENPP-1, 24 μM cGAMP.

Like-named read-outs stand apart in the source and are kept apart here. Bounds are passed on as bounds.

ENPP-1 ECD, sequence (P22413 98-925): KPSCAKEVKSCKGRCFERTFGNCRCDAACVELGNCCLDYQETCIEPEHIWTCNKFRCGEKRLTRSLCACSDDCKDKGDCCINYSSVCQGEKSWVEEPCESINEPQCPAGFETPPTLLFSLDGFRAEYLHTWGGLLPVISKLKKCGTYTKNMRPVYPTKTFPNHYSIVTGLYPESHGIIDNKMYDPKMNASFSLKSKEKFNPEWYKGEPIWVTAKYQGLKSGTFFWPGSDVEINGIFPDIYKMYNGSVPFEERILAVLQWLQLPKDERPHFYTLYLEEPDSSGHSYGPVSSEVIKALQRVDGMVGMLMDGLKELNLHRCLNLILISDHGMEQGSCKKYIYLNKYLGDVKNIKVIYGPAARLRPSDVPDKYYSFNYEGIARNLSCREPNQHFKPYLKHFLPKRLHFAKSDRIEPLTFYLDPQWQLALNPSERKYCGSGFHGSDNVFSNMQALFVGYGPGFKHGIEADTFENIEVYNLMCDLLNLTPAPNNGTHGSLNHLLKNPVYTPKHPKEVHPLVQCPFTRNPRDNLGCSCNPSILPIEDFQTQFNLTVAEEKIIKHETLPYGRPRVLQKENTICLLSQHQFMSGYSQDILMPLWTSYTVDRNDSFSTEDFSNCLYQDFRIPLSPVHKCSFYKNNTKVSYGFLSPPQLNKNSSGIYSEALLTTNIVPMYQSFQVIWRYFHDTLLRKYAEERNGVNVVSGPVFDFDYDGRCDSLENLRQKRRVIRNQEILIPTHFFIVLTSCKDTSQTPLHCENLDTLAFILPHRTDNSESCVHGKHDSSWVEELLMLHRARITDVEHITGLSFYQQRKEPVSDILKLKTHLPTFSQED
Procedure: Assay 2: Compared to the conditions in Assay 1, this assay has a larger dynamic range and ensures the system is under steady-state conditions by reducing the enzyme concentration in the assay.
Test compounds were plated in a 3× dilution scheme in a 384 well plate. […] AMP Detection solution (10 μL) was added to each well, the plate centrifuged and incubated for 60 min.

Take `COc1ccc2c(OCC3CCS(=N)(=O)CC3)ccnc2c1` (single isomer, unassigned) [Compound 107a, 4-[(1-imino-1-oxido-3,4,5,6-tetrahydro-2H-thiopyran-4-yl)methoxy]-7-methoxy-quinoline]: under setting [1], the Ki amounted to 27 nM.
Turning to `COc1ccc2c(OCC3CCS(=N)(=O)CC3)ccnc2c1` (single isomer, unassigned) [Compound 107b, 4-[(1-imino-1-oxido-3,4,5,6-tetrahydro-2H-thiopyran-4-yl)methoxy]-7-methoxy-quinoline], the Ki under setting [1] turned out to be 74 nM.
For the compound `COc1cc2ncnc(-c3ccc4c(c3)CN([S@@](C)(=N)=O)CC4)c2cc1OC` [Compound 37a], the Ki is, setting by setting: under setting [2], 3 to 300 nM; under setting [3], 21 nM.
In the case of `COc1ccc2c(-c3ccc4c(c3)CN([S@](C)(=N)=O)CC4)ccnc2c1` [Compound 52a], the Ki under setting [2] is 3 to 300 nM and the Ki under setting [3] was found to be 110 nM.
With `COc1ccc2c(-c3ccc4c(c3)CN([S@@](C)(=N)=O)CC4)ccnc2c1` [Compound 52b], the Ki under setting [2] lay in the range of 3 to 300 nM and the Ki under setting [3] was 3.5 nM.
In the case of `COc1ccc2c(Oc3ccc(S(C)(=N)=O)cc3)ccnc2n1` (centres unmarked) [Compound 78, imino(4-((7-methoxy-1,8-naphthyridin-4-yl)oxy)phenyl)(methyl)-λ^6-sulfanone], the Ki reads like this: under setting [4], 3 to 300 nM; under setting [1], 150 nM.
Take `COc1cc2ncnc(N3CCC(CN[S@](C)(=N)=O)CC3)c2cc1OC` [Compound 94b]: the Ki by setting is: under setting [2], 3 to 300 nM; under setting [3], 9 nM.
In the case of `COc1ccc2c(OCC3CCS(=N)(=O)CC3)ccnc2c1` (centres unmarked) [Compound 107, 4-[(1-imino-1-oxido-3,4,5,6-tetrahydro-2H-thiopyran-4-yl)methoxy]-7-methoxy-quinoline], the Ki under setting [1] is 80 nM.
Consider `COCCS(=N)(=O)c1ccc(Oc2ccnc3cc(OC)ccc23)cc1` (centres unmarked) [Compound 122, imino(2-methoxyethyl){4-[(7-methoxyquinolin-4-yl)oxy]phenyl}-λ^6-sulfanone], for which the inhibition constant Ki was below 3 nM under setting [4] and 1.6 nM under setting [1].
With `COc1cc2nccc(N3CCC(CC[S@](C)(=N)=O)CC3)c2cc1Cl` [Compound 141b], the Ki is, setting by setting: under setting [2], 3 to 300 nM; under setting [3], 31 nM.
In the case of `COc1cc2ncnc(N3CCC(CCCS(C)(=N)=O)CC3)c2cc1OC` (centres unmarked) [Compound 145, {3-[1-(6,7-dimethoxyquinazolin-4-yl)piperidin-4-yl]propyl}(imino)methyl-λ^6-sulfanone], the Ki is 3 to 300 nM under setting [4] and 8.7 nM under setting [1].
For `COc1cccc2c(N3CCC(C[S@](C)(=N)=O)CC3)ncnc12` [Compound 146b], the Ki under setting [3] was determined as 66 nM.
`COc1cc2ncnc(N3CCC(CS(C)(=N)=O)CC3)c2cc1OC` (centres unmarked) [Compound 147, {[1-(6,7-dimethoxyquinazolin-4-yl)piperidin-4-yl]methyl}(imino)methyl-λ^6-sulfanone] came in with a Ki under setting [4] of 3 to 300 nM and a Ki under setting [1] of 9.9 nM.
`COc1ccc2c(N3CCC(CS(C)(=N)=O)CC3)ccnc2c1` (centres unmarked) [Compound 148, imino({[1-(7-methoxyquinolin-4-yl)piperidin-4-yl]methyl})methyl-λ^6-sulfanone] yielded a Ki under setting [4] of 3 to 300 nM and a Ki under setting [1] of 56 nM.
As for `COc1cc2nccc(N3CCC4(CC3)CCN([S@](C)(=N)=O)C4)c2cc1Cl` [Compound 156b], the Ki under setting [2] is below 3 nM and the Ki under setting [3] was found to be 2.9 nM.
With `COc1cc2nccc(N3CCC(CNS(C)(=N)=O)CC3)c2cc1Cl` (centres unmarked) [Compound 157, N-{[1-(6-chloro-7-methoxyquinolin-4-yl)piperidin-4-yl]methyl}methanesulfonoimidamide], the Ki is, setting by setting: under setting [4], below 3 nM; under setting [1], 2.7 nM.
Turning to `COc1ccc2c(N3CCC4(CC3)CCN(S(C)(=N)=O)C4)ccnc2n1` (centres unmarked) [Compound 158, imino[8-(7-methoxy-1,8-naphthyridin-4-yl)-2,8-diazaspiro[4.5]decan-2-yl]methyl-λ^6-sulfanone], the Ki runs as follows: under setting [4], below 3 nM; under setting [1], 0.44 nM.
Consider `COc1cc2ncnc(N3CCC4(CC3)CCN([S@@](=N)(=O)C3CC3)C4)c2cc1OC` [Compound 160b], for which the Ki under setting [3] was determined as 1.7 nM.
As for `COc1cc2nccc(-c3ccc4c(c3)CN([S@](C)(=N)=O)CC4)c2cc1OC` [Compound 161b], the Ki was below 3 nM under setting [2] and 0.64 nM under setting [3].
On to `COc1ccc2c(-c3ccc4c(c3)CN(S(C)(=N)=O)CC4)ccnc2n1` (centres unmarked) [Compound 163, imino[7-(7-methoxy-1,8-naphthyridin-4-yl)-1,2,3,4-tetrahydroisoquinolin-2-yl]methyl-λ^6-sulfanone], for which the inhibition constant Ki is 3 to 300 nM under setting [4] and 21 nM under setting [1].
For the compound `COc1cc2ncnc(OCC3CCN(S(C)(=N)=O)CC3)c2cc1OC` (centres unmarked) [Compound 164, (4-{[(6,7-dimethoxyquinazolin-4-yl)oxy]methyl}piperidin-1-yl)(imino)methyl-λ^6-sulfanone], the Ki was 3 to 300 nM under setting [4] and 97 nM under setting [1].
For `COc1ccc2c(Oc3ccc(S(C)(=N)=O)cc3)ncnc2c1` (centres unmarked) [Compound 167, imino({4-[(7-methoxyquinazolin-4-yl)oxy]phenyl})methyl-λ^6-sulfanone], under setting [1], the Ki was determined as 7.9 nM.
For the compound `COc1cc2ncnc(OCC3CCS(=N)(=O)CC3)c2cc1OC` (centres unmarked) [Compound 171, 4-{[(6,7-dimethoxyquinazolin-4-yl)oxy]methyl}-1-imino-1λ^6-thian-1-one], the affinity under setting [1], expressed as Ki, was 49 nM.
On to `COc1ccc2c(OCc3cncc(S(C)(=N)=O)c3)ccnc2c1` (centres unmarked) [Compound 172, imino(5-{[(7-methoxyquinolin-4-yl)oxy]methyl}pyridin-3-yl)methyl-λ^6-sulfanone], for which the inhibition constant Ki under setting [1] was 11 nM.
As to `COc1cc2nccc(OCc3cccc([S@@](C)(=N)=O)c3)c2cc1OC` [Compound 175b], the Ki under setting [3] was 4.1 nM.
As for `COc1ccc2c(OCc3cc(F)cc([S@@](C)(=N)=O)c3)ccnc2c1` [Compound 177a], the inhibition constant Ki under setting [3] is 20 nM.
The compound `COc1ccc2c(O[C@H](C)c3cccc(S(C)(=N)=O)c3)ccnc2c1` (stereo partly drawn) [Compound 178, imino({3-[(1R)-1-[(7-methoxyquinolin-4-yl)oxy]ethyl]phenyl})methyl-λ^6-sulfanone] came in with a Ki under setting [1] of 2.6 nM.
Consider `COc1ccc2c(O[C@H](C)c3cccc([S@](C)(=N)=O)c3)ccnc2c1` [Compound 178b], for which the Ki under setting [3] came to 34 nM.
Take `COc1cccc2c(N3CCC(C[S@@](C)(=N)=O)CC3)c(C#N)cnc12` [Compound 179a]: under setting [3], the Ki amounted to 9.1 nM.
`COc1cccc2c(N3CCC(CS(C)(=N)=O)CC3)ccnc12` (centres unmarked) [Compound 180, imino({[1-(8-methoxyquinolin-4-yl)piperidin-4-yl]methyl})methyl-λ^6-sulfanone] gave a Ki under setting [1] of 16 nM.
Turning to `COc1cccc2c(N3CCC(CS(C)(=N)=O)CC3)cnnc12` (centres unmarked) [Compound 182, imino({[1-(8-methoxycinnolin-4-yl)piperidin-4-yl]methyl})methyl-λ^6-sulfanone], the affinity under setting [1], expressed as Ki, was 3.1 nM.
`COc1cc(F)cc2c(N3CCC(CS(C)(=N)=O)CC3)ncnc12` (centres unmarked) [Compound 183, {[1-(6-fluoro-8-methoxyquinazolin-4-yl)piperidin-4-yl]methyl}(imino)methyl-λ^6-sulfanone] registered a Ki under setting [1] of 5.2 nM.
For `COc1cc(F)cc2c(N3CCC(C[S@@](C)(=N)=O)CC3)ncnc12` [Compound 183a], the Ki under setting [3] was 2.9 nM.
`COc1cc(F)cc2c(N3CCC(CS(C)(=N)=O)CC3)ncnc12` (centres unmarked) [Compound 183b]: the inhibition constant (Ki) under setting [3] was above 150 nM.
The same measure, in the same setting: the value for `COc1cccc2c(N3CCC(O)(C[S@](C)(=N)=O)CC3)ncnc12` [Compound 185b] was 2.8 nM; that for `COc1cccc2c(N3CCC(C[S@@](=N)(=O)C4CC4)CC3)c(C#N)cnc12` [Compound 189a] was 8.8 nM; that for `COc1cc2nccc(NCc3cccc(S(C)(=N)=O)c3)c2cc1F` (centres unmarked) [Compound 192, (3-{[(6-fluoro-7-methoxyquinolin-4-yl)amino]methyl}phenyl)(imino)methyl-λ^6-sulfanone] was 0.58 nM.
On to `COc1cccc2c(N3CCC(O)(C[S@@](=N)(=O)C4CC4)CC3)ncnc12` [Compound 193a], for which the Ki under setting [3] is 54 nM.
The compound `COc1cccc2c(N3CCC(O)(CS(C)(=N)=O)C4(CC4)C3)ncnc12` (centres unmarked) [Compound 194, {[8-hydroxy-5-(8-methoxyquinazolin-4-yl)-5-azaspiro[2.5]octan-8-yl]methyl}(imino)methyl-λ^6-sulfanone] displayed a Ki under setting [1] of 40 nM.
With `CCS(=N)(=O)CC1(O)CCN(c2ncnc3c(OC)cccc23)CC1` (centres unmarked) [Compound 195, ethyl({[4-hydroxy-1-(8-methoxyquinazolin-4-yl)piperidin-4-yl]methyl})imino-λ^6-sulfanone], under setting [1], the affinity corresponds to a Ki of 0.2 nM.
For `CC[S@@](=N)(=O)CC1(O)CCN(c2ncnc3c(OC)cccc23)CC1` [Compound 195a], under setting [3], the inhibition constant Ki is 0.052 nM.
For `CC[S@](=N)(=O)CC1(O)CCN(c2ncnc3c(OC)cccc23)CC1` [Compound 195b], the Ki under setting [3] is 7.7 nM.
Same read-out and setting: the value for `COc1cccc2c(N3CCC(O)(C[S@](C)(=N)=O)CC3)c(C#N)cnc12` [Compound 198b] was 1.2 nM.
In turn, `COc1cccc2c(N3CCC(CS(C)(=N)=O)CC3)c(F)cnc12` (centres unmarked) [Compound 202, {[1-(3-fluoro-8-methoxyquinolin-4-yl)piperidin-4-yl]methyl}(imino)methyl-λ^6-sulfanone] registered a Ki under setting [1] of 370 nM.
In turn, `COc1ccc(F)c2c(N3CCC(CS(C)(=N)=O)CC3)c(C#N)cnc12` (centres unmarked) [Compound 203, 5-fluoro-4-(4-{[imino(methyl)oxo-λ^6-sulfanyl]methyl}piperidin-1-yl)-8-methoxyquinoline-3-carbonitrile] had a Ki under setting [1] of 1.7 nM.
Turning to `COc1cc2nccc(-c3cccc(CCS(C)(=N)=O)c3)c2cc1OC` (centres unmarked) [Compound 204, {2-[3-(6,7-dimethoxyquinolin-4-yl)phenyl]ethyl}(imino)methyl-λ^6-sulfanone], the Ki under setting [1] was determined as 28 nM.

In general, Ki refers to a dissociation constant, usually derived from enzyme kinetics or from competition with a known ligand.

The record behind these values is patent US11780849B2, “Imino sulfanone inhibitors of ENPP1” (Volastra Therapeutics, Inc., priority 2020, dated 2023).
